The subject of test [1] is Pancreatic anlages from mice embryos E12.5, E14.5 and E16.5. Kind of test: Differentiation of fetal pancreatic anlages into insulin producing cells (insulin promoter GFP). The conditions noted are these: 10 mM with 4 factors. Type of test: cell-based. On the procedure:
Pancreatic anlages were obtained from mice embryos E12.5, E14.5 and E16.5 that express GFP on the downstream of the insulin promoter. Each pancreatic anlage was cultured in a suspension culture in Improved MEM Zinc Option medium containing 1% B-27 added with forskolin (10 μM), nicotinamide (10 mM), dexamethasone (10 μM), ALK5 inhibitor II (5 μM) and sodium cromoglicate (10 mM) for 4 days.
Further, expression of insulin and Neurog 3 in thus obtained cells were analyzed by PCR and confirmed that the expression of those genes was increased in the cells cultured with sodium cromoglicate (FIG. 7C).

Test [2] relates to Human iPS cell line 201B7. The test is described as follows: Differentiation of 201B7 with sodium cromoglicate used solely or with single additives in step 3. The format is cell-based. On the procedure: Human iPS cell line 201B7 was used. The cells were differentiated into insulin producing cells by the following steps. The colonies of the iPS cell line was grown to approximately 80-90% confluence in the culture plate and dissociated from the plate by using CTK solution (Reprocell). The dissociated colonies were then divided into single cells using Accutase™ and seeded in 24 well plates (Greiner) at 2.0×10^5/well. The cells were cultured in RPMI medium containing 1% B-27 added with activin A (100 ng/ml), CHIR99021 (1 μM) and Y-27632 (10 μM) for 2 days. Then, the cells were further cultured in RPMI medium containing 1% B-27 added with activin A (100 ng/ml) and CHIR99021 (1 μM) for more 3 days (Day 5). During this period, the medium was changed with the same fresh medium on the third (Day 3) and the fourth days (Day 4). The cells obtained in Step 1 were cultured in improved MEM Zinc Option medium containing 1% B-27 added with dorsomorphin (1 μM), retinoic acid (2 μM), and SB431542 (10 μM) for 6 days (Day 11). During this period, the medium was changed with the same fresh medium every two days. The cells obtained in Step 2 were cultured in improved MEM Zinc Option medium containing 1% B-27 added with sodium cromoglicate (10 mM) for more 8 days (Day 19). During this period, the medium was changed with the same fresh medium every four days. The ratio of insulin expression versus β-Actin expression was determined by using quantitative PCR. […] Then, the effect of sodium cromoglicate when used in combination with each of the four additives used in EXAMPLE 4: forskolin (10 μM), nicotinamide (10 mM), dexamethasone (10 μM), and ALK5 inhibitor II (5 μM) was determined.

Test [3] has as its system iPS cell lines 418C1, 409B2 and 201B7. Kind of test: Differentiation of three iPS cell lines into insulin positive cells. The conditions noted are these: 10 mM in step 3 vs control; all three iPS cell lines; FIG. 2A. The format is cell-based, human. The source says:
Three iPS cell lines, 418C1 and 409B2 (Okita K, et al, Nat Methods. 2011 8:409-412) and 201B7, all of which were generated from fibroblast cells, can be obtained from Center for iPS Cell Research and Application, Kyoto University. The iPS cell lines obtained from Kyoto University were differentiated into insulin positive cells by subjecting the cells to the same steps as those in Examples 1 and 2 with the exception that the concentration of sodium cromoglicate in the culture medium used in step 3 was 10 mM.

In test [4] the test system is Human ES cell line KhES3. Kind of test: Differentiation of human ES cell line KhES3 into insulin producing cells, flow cytometry. As to conditions: step 3 with 4 factors plus 0.001-20 mM sodium cromoglicate, 12 days. Type of test: cell-based. An excerpt:
Human ES cell line KhES3 was obtained from Kyoto University and maintained in the manner as shown in H. Suemori et al. (2006), Biochem. Biophys. Res. Commun., 345:926-932, the contents of this document is herein incorporated by reference. The cells of KhES3 were differentiated into insulin producing cells according to the steps shown below. The colonies of the human ES cell line grown to approximately 70% confluent in the culture plate were dissociated from the plate by using CTK solution (Reprocell). The dissociated colonies were then divided into single cells using Accutase™ and seeded in 24 well plates (Greiner) at 2.0×10^5/well. The cells were cultured in RPMI medium containing 2% FBS added with activin A (100 ng/ml) and CHIR99021 (3 μM) for 5 days. During this period, the medium was changed with the same fresh medium on the third and the fourth days. The cells obtained in Step 1 were cultured in improved MEM Zinc Option medium containing 1% B-27 (Invitrogen Corp.) comprising dorsomorphin (1 μM), retinoic acid (2 μM), and SB431542 (10 μM) for 6 days. During this period, the medium was changed with the same fresh medium every two days. […] The obtained cells were treated by using BD Cytofix/Cytoperm™ Kit and then, stained with polyclonal guinea-pig anti Swine insulin antibody/anti-serum (DAKO) and analyzed using flow cytometry to determine the number of insulin producing cells.

Where a name gives a salt, the structure may show the parent alone.

The results in this text go back to US9796962B2, “Method for generating pancreatic hormone-producing cells” (Kyoto University, priority 2013, dated 2017).

For `O=C(O)c1cc(=O)c2c(OCC(O)COc3cccc4oc(C(=O)O)cc(=O)c34)cccc2o1` [sodium cromoglicate, sodium salt of 1,3-Bis(2-carboxychromon-5-yloxy)-2-hydroxypropane], the “ratio of GFP positive cells” value in test [1] (suspension culture 4 days, E12.5, E14.5, E16.5, FIG. 7B) is on record as “increased the ratio of GFP positive cells in each embryonic pancreatic anlage”. The “expression of Neurog 3” value in test [1] (PCR, 4 days, FIG. 7C) is “increased”. For the same compound, in test [1] (PCR, 4 days, FIG. 7C), the expression of insulin entry is given as “increased”. The “expression of insulin in combination with each single additive” value in test [2] (combined with forskolin (10 μM), nicotinamide (10 mM), dexamethasone (10 μM) or ALK5 inhibitor II (5 μM)) is on record as “confirmed in all 4 combinations, although the amount of the expression was not so high”. For the same compound, the “effect on the agents' induction of insulin producing cells in combination” value in test [2] (combined with forskolin, nicotinamide, dexamethasone or ALK5 inhibitor II) is recorded as “enhances the effects of all 4 agents”. For the same compound, the “amount of insulin positive cells” value in test [2] (immune staining, 10 mM alone in step 3, 8 days, FIG. 8C) is recorded as “higher”. For the same compound, the “ratio of insulin expression versus β-Actin expression, presence vs absence” value in test [2] (quantitative PCR, 10 mM alone in step 3, 8 days, FIG. 8B) is given as “higher”. Also, the “ratio of insulin positive cells” value is given as “ratio of insulin positive cells were increased” in test [3] and “increased the ratio of insulin positive cells in a concentration dependent manner” in test [4].
